Test results reported in US12480950B2, “AKT-specific capture agents, compositions, and methods of using and making” (California Institute of Technology, priority 2011, dated 2025).
Square brackets hold non-standard residues; d marks the D form. Ends that are not written are not given here. Pra = C#CC[C@H](N)C(=O)O; Az8 = not defined here

Tests used:
Akt1-S473E-T308P [1] = experiment: [γ-32P]-ATP kinase activity assay, inhibition of Akt1-S473E-T308P; type: biochemical, H. sapiens; details: 120 μM compound, 30 minutes at room temperature, in the absence and presence of the conjugated small molecule inhibitor
Chain of Akt1-S473E-T308P (P31749 150-449 limits assumed, stated change not applied): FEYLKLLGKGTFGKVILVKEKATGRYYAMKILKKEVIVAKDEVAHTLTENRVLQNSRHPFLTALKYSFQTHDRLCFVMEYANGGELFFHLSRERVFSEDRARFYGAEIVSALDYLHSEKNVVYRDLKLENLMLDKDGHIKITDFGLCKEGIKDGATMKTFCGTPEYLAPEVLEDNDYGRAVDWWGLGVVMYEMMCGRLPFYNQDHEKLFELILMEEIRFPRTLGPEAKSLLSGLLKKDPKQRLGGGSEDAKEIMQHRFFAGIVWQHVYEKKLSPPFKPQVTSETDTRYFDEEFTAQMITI
Procedure: Peptide is SEQ ID NO:22. Kinase reactions were carried out with 120 μM of each compound for 30 minutes at room temperature. The amount of phosphorylated substrate was quantitated by liquid scintillation counting and the % Akt1-S473E-T308P activity determined based on the amount of product formed in the control kinase reaction. The values shown are the mean value of three experiments and the error bars are the standard deviation.
The activity of Akt-S473E-T308P was characterized by a [γ-^32P]-ATP kinase activity assay measuring the incorporation of ^32P into biotinylated crosstide peptide (Anaspec). Briefly, reactions containing 80 ng of Akt-S473E-T308P, 50 μM Bio-crosstide, and varying concentrations of ATP/[γ-^32P]-ATP (specific activity=1.5 mCi/mL).
(§1) Candidate sequences were scaled up and tested for their ability to inhibit Akt1-S473E-T308P activity. […] This peptide was re-synthesized as a C-terminal biotinylated peptide and used as the anchor in the biligand screen.

Akt1-S473E-T308P [2] = experiment: Phosphorylation of biotinylated anchor peptide in standard kinase reaction; type: biochemical, H. sapiens; details: 30 min at room temperature, liquid scintillation counting
Procedure: Biotinylated peptides were incubated in a standard kinase reaction mixture for 30 min. at room temperature. A portion of the reaction was spotted onto a SAM2 Biotin Capture Membrane (Promega), washed, and analyzed by liquid scintillation counting. The total counts per minute (cpm) are shown for the anchor peptide (VFYRL-Bio(1) (SEQ ID NO:22) and VFYRL-Bio(2) (SEQ ID NO:22)) as well as the standard substrate peptide (Bio-Crosstide). The number in parentheses identifies the diastereomer based on retention time in RP-HPLC.
as §1

Akt-S473E = experiment: ELISA with immobilized Akt-S473E, relative affinity of biotinylated ligands; type: binding, H. sapiens; details: read-out: binding affinity for Akt
Chain of Akt-S473E (P31749 144-449 limits assumed, stated change not applied): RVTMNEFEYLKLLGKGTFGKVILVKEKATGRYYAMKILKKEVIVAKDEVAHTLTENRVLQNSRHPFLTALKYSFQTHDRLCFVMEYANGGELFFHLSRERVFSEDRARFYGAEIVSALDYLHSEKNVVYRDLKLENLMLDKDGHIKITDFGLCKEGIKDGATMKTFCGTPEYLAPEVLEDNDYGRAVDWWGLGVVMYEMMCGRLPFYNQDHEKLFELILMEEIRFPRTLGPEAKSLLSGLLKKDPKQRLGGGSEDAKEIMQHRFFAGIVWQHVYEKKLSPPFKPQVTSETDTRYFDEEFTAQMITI
Procedure: Akt-S473E was immobilized on Ni-NTA plates and incubated with varying concentrations of biotinylated peptide. All values were normalized to the binding observed at saturation.
The affinity of the anchor ligand, biligand, and triligand developed in Example 1 was determined by ELISA with immobilized Akt-S473E.
3 μg of Akt-S473E was added to each well in a HisSorb Ni-NTA plate (Qiagen) in 50 μL of ELISA blocking buffer (25 mM Tris-Cl (pH=7.5), 150 mM NaCl, 10 mM MgCl2, 0.1% (v/v) Tween-20, and 4 mg/mL BSA). 50 μL of imidazole blocking buffer (25 mM Tris-Cl (pH=7.5), 150 mM NaCl, 10 mM MgCl2, 0.1% (v/v) Tween-20, 100 mM imidazole, and 4 mg/mL BSA) was added to the control wells. After 18 hours at 4° C., the wells were washed with ELISA blocking buffer and 50 μL of each ligand dilution was added in ELISA blocking buffer. The ligands were bound at 4° C. for 120 minutes followed by three washed in ELISA blocking buffer. 50 μL of horseradish peroxidase-conjugated streptavidin (SA-HRP, Thermo) was added (1:5000 dilution in ELISA blocking buffer) and incubated for 70 minutes at 4° C. […] 50 μL of peroxidase substrate (KPL) was added to generate the final signal which was quenched in 1 M H2SO4 and quantitated on a 96-well plate reader at X=450 nm. The Net A450 was calculated by subtracting the A450 of each blank well (No Akt-S473E) from the experimental well. […]

Akt1 = experiment: Specificity ELISA, immobilized ligand probed with His-tagged kinases; design: species or system H. sapiens; details: A450 normalized to Akt1-S473E binding; kinase panel
Chain of Akt1 (P31749 150-408 limits assumed): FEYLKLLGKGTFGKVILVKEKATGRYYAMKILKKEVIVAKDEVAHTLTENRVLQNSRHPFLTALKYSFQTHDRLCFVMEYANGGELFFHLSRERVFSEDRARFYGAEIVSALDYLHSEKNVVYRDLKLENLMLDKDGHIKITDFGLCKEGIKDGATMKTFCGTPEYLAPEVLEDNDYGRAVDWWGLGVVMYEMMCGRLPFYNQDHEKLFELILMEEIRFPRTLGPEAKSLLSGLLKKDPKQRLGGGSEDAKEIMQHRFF
Procedure: (§2) Biotinylated ligand was immobilized on Streptavidin plates and probed with 25 nM His-tagged kinase followed by anti-Histag antibody-HRP conjugate. Values represent the mean A450 obtained from three experiments after normalization to Akt1-S473E binding. The error bars show the standard error.
(§3) The specificity of the anchor ligand, biligand, and triligand developed in Example 1 was analyzed using a battery of protein kinases. […] Akt1-S473E was expressed and purified as described above.
(§4) The relative affinity of each kinase was determined by probing with an anti-His6 antibody and normalizing the response to Akt1-S473E. All proteins were diluted in Akt blocking buffer to a final concentration of 24 nM prior to use. Ligands were diluted in Akt blocking buffer to a final concentration of 2.5 μM prior to use. 100 μL of each ligand (250 pmol) was added to each well of a HBC streptavidin-coated 96-well plate. The ligands were bound at 4° C. for 1 hour followed by addition of D-biotin to a final concentration of 500 μM. After 10 minutes at 4° C., the wells were washed three times with Akt blocking buffer and blocked overnight in 5% non-fat milk.
(§5) The wells were washed three times in Akt blocking buffer and 50 μL of active protein was applied to each well. After binding for 120 minutes at 4° C., the wells were washed three times in Akt blocking buffer to remove unbound protein. 50 μL of horseradish peroxidase-conjugated Anti-His6 antibody was added at a dilution of 1:100 (His Probe (H-3) HRP conjugate, Santa Cruz Biotechnology). The antibody-HRP conjugate was incubated for 60 minutes and the wells were washed 3 times in TBST and once in TBS. 50 μL of peroxidase substrate (KPL) was added and the resulting color change was quenched with 50 μL 1 M H2SO4. The A450 measured on a 96-well plate reader. […] The mean value for the triplicates was calculated and plotted and the error bars were generated from the standard error of the mean (GraphPad Prism).

GSK3β = target: T1, GSK3β (Homo sapiens, UniProt P49841); experiment: as above; details: A450 normalized to Akt1-S473E binding
T1 construct: a set of His-tagged active protein kinase domains from the AGC family; purchased Invitrogen
T1 sequence (P49841 56-340 limits assumed, species assumed): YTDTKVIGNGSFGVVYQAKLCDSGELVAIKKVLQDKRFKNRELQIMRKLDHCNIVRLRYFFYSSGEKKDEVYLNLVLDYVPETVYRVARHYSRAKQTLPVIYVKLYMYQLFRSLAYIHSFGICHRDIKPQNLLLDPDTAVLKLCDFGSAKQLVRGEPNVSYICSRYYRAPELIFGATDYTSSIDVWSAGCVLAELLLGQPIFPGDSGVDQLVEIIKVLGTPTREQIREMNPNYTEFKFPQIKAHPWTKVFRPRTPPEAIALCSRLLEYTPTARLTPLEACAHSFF
Procedure: as §2, §3, §4, §5

[3] = target: T2, E17K mutant Akt1 PH Domain (Homo sapiens, UniProt P31749, E17K); experiment: Streptavidin-agarose pulldown assay; type: binding; details: Western blot, relative protein band sizes
T2 construct: The first 124 N-terminal amino acids from full length Akt1 were used as the PH Domain DNA; thrombin cleavage site (C); 6-His (C); made in house; host or cells: E. coli
T2 sequence (P31749 1-124 E17K): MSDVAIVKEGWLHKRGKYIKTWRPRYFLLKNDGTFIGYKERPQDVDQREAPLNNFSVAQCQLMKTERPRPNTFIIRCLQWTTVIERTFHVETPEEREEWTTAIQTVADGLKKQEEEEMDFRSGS
Procedure: (§6) These resins were then incubated with either (a) WT or (b) E17K Mutant PHD to measure the amount of pulldown for each potential anchor ligand. Peptide eefef is SEQ ID NO:5. Peptide yleaf is SEQ ID NO:16.
(§7) Pulldown assays were done on Streptavidin Agarose resin from Novachem. The resin was incubated with N-terminally biotinylated anchor peptide candidates identified via the ClusterLigand sequence analysis. The anchor candidate coated beads were then incubated with both wildtype and mutant protein to compare the selectivity of the ligands, as well as the binding ability.
(§8) Assays were done with 50 uL of Streptavidin-Agarose slurry (25 uL resin) in Spin-X tubes. Resin was aliquotted into 14 tubes—six ligands plus a blank tested against two different proteins, then washed three times with 1×TBS with 0.25% IPEGAL detergent added. Each set of tubes was incubated with 170 nmol of the appropriate biotinylated ligand in 200 uL 1×HEPES (10 mM HEPES, 150 mM NaCl, 0.25% IPEGAL, 5 mM EDTA) or plain buffer for the blank. Ligand binding was done for one hour at room temperature, then resin was washed three times with 1×HEPES. Resin was blocked with 1×HEPES with 5% BSA for two hours. The anchor-coated resin was then incubated with either wildtype or mutant expressed PH domain protein overnight (˜16 hours) in cold room (4° C.). Protein was spun out of tubes, and the resin was washed three times with high salt TBS, then incubated for five minutes in the high salt buffer. The resin was then washed three times with the 1×TBS buffer, and spun out to dry completely. 50 uL of denaturing SDS gel loading buffer with 10% B-mercaptoethanol was added to the samples and they were incubated at 95° C. for ten minutes to denature. The gel loading buffer was spun out of the Spin-X tubes and the samples were run on an Any KD BioRad Premade Gel under denaturing conditions. Gel was transferred to nitrocellulose membrane and western blotted. Proteins were detected using rabbit polyclonal anti-Akt1 antibody (ab64148, Abcam) and an anti-rabbit HRP conjugated secondary anti-body then developed with West Pico Chemilluminescent substrate (Pierce).

wildtype Akt1 PH Domain = target: T3, wildtype Akt1 PH Domain (Homo sapiens, UniProt P31749); experiment: Streptavidin-agarose pulldown assay; type: binding; details: Western blot, relative protein band sizes
T3 construct: The first 124 N-terminal amino acids from full length Akt1 were used as the PH Domain DNA; thrombin cleavage site (C); 6-His (C); made in house; host or cells: E. coli
T3 sequence (P31749 1-124): as the sequence (P31749 1-124 E17K) above, with K17E counted along it
Procedure: as §6, §7, §8

Akt = experiment: Immunoprecipitation of Akt from OVCAR3 cell lysates with immobilized ligands; type: binding; details: EGF and insulin induced or control, Western blot with pan-Akt antibody
Procedure: A representative 12% gel stained with Coomassie and imaged. Lane 1: Lysate, Lane 2: Anchor resin, Lane 3: Biligand resin, Lane 4: Triligand resin, Lane 5: 5G3 mAb resin.
After 18 hours at 4° C., resins were washed exhaustively, eluted with SDS-PAGE sample buffer, and analyzed by Western blotting. 1. Blank resin, 2. Anchor, 3. Biligand, 4. Triligand, 5. [5G3] mAb, L. lysate.
For the IP experiments, the anchor, biligand, and triligands were immobilized on streptavidin-agarose, and each resin was panned with OVCAR3 cell lysates obtained from untreated cells or cells stimulated with a combination of epidermal growth factor (EGF) and insulin.
OVCAR3 cells were grown in RPMI-1640 media containing 10% fetal bovine serum, penicillin, and streptomycin. Passage 4 cells were grown to ˜60% confluence and treated with insulin and EGF at final concentration of 10 μg/mL and 20 ng/mL respectively (induced) or mock treated (control). Cells were grown for an additional 24 hours and then lysed with lysis buffer (10 mM Tris-Cl (pH=7.5), 100 mM NaCl, 1% (v/v) Triton X-100, 0.1% SDS (w/v), 0.5% deoxycholate, 1 mM DTT, 1 mM EDTA, 1× PhosStop phosphatase inhibitors (Roche), 1× Complete protease inhibitors (Roche). Cell lysate protein concentrations were determined by Bradford assays. […]

| Substance | inhibition of Akt1 (Akt1-S473E-T308P [1]) | phosphorylation by Akt in vitro (Akt1-S473E-T308P [2]) | Kd (Akt-S473E) | specificity / selectivity for Akt1 (Akt1) | binding to GSK3β (GSK3β) | pulldown of E17K mutant PH Domain [3] | pulldown of wildtype PH Domain (wildtype Akt1 PH Domain) | immunoprecipitation of Akt (Akt) |
| --- | --- | --- | --- | --- | --- | --- | --- | --- |
| Az8-VFYRLGY-CONH2 [anchor ligand] | ~95% | not phosphorylated | > 25 µM | very specific for the Akt1 protein | only modest binding | – | – | – |
| yleaf ([dY][dL][dE][dA][dF]; not fully specified (N-terminus); printed as yleaf; also: biotinylated, position not confirmed) | – | – | – | – | – | the greatest binding to the mutant | the least binding to the wildtype | – |
| biligand: anchor ligand Az8-VFYRLGY linked by 1,4-triazole to secondary ligand Pra-FWFLRG-CONH2; biotinylated for assays (peptide 2 [Pra]FWFLRG-NH2; not fully specified (N-terminus, C-terminus, bridges); reading uncertain; also: biotinylated for assays, triazole at chain B 1 to a chain's N-terminus) | – | – | – | reduced selectivity | significant cross-reactivity | – | – | increased affinity |
| eefef ([dE][dE][dF][dE][dF]; not fully specified (N-terminus); printed as eefef; also: biotinylated, position not confirmed) | – | – | – | – | – | the least pulldown for the mutant protein | the only pulldown of the wildtype protein | – |
